Where “and” joins values, the source holds several entries; their conditions need not be identical. Equal entries are not always repeated.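 Compound exposure: 48 hours, 5 concentrations, 96-well plates. GI50 = concentration required for 50% inhibition of growth.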 Calls of active or inactive are those of the source. Rule as the data show it: active = GI50 up to about 1.1 µM and inactive = higher.
How the values were obtained:
Assay in all cases: inhibition of tumour cell growth, NCI panel, 48 h
[1] = test system: CCRF-CEM
[2] = test system: SNB-75
[3] = test system: SNB-19
[4] = test system: HL-60
[5] = test system: LOX IMVI
[6] = test system: K562
[7] = test system: HCT-15
[8] = test system: RPMI-8226
[9] = test system: SK-MEL-28
[10] = test system: COLO 205
[11] = test system: 786-0
[12] = test system: A498
[13] = test system: NCI-H460
[14] = test system: UACC-62
[15] = test system: SK-MEL-2
[16] = test system: OVCAR-3
[17] = test system: ACHN

COc1ccc(C(=O)CC(=O)C(=O)Nc2ccc(C)c(C)c2)cc1
GI50 [1]: 26.5 µM (inactive) | GI50 [2]: 11.3 µM (inactive) | GI50 [3]: > 100 µM (inactive) | GI50 [4]: 10.5 µM (inactive) | GI50 [5]: 23.7 µM (inactive) | GI50 [6]: 53.6 µM (inactive) | GI50 [7]: 31.3 µM | GI50 [8]: > 47.5 µM (inactive) | GI50 [9]: > 100 µM (inactive) | GI50 [10]: > 51.9 µM (inactive) | GI50 [11]: > 69 µM (inactive) | GI50 [12]: > 100 µM (inactive) | GI50 [13]: > 41.3 µM (inactive) | GI50 [14]: > 95.5 µM (inactive) | GI50 [15]: > 100 µM (inactive) | GI50 [16]: > 100 µM (inactive) | GI50 [17]: > 100 µM (inactive)

O=C(c1ccccc1)c1nnn(Cc2ccccc2Cn2nnc(C(=O)c3ccccc3)c2C(=O)c2ccccc2)c1C(=O)c1ccccc1
GI50 [1]: > 100 µM (inactive) | GI50 [2]: > 100 µM (inactive) | GI50 [3]: > 100 µM (inactive) | GI50 [4]: > 100 µM (inactive) | GI50 [5]: > 100 µM (inactive) | GI50 [6]: > 100 µM (inactive) | GI50 [7]: > 100 µM | GI50 [8]: > 100 µM (inactive) | GI50 [9]: > 100 µM (inactive) | GI50 [10]: 50.5 µM (inactive) | GI50 [11]: > 100 µM (inactive) | GI50 [12]: > 100 µM (inactive) | GI50 [13]: > 100 µM (inactive) | GI50 [14]: > 100 µM (inactive) | GI50 [15]: > 100 µM (inactive) | GI50 [16]: > 100 µM (inactive) | GI50 [17]: > 100 µM (inactive)

CC1=NN(C(=O)CC(=O)Nc2cccc(Cl)c2)C(=O)C1/N=N/c1ccc(S(N)(=O)=O)cc1 (stereo unspecified)
GI50 [2]: > 100 µM (inactive) | GI50 [3]: > 100 µM (inactive) | GI50 [5]: > 100 µM (inactive) | GI50 [7]: > 100 µM | GI50 [8]: > 100 µM (inactive) | GI50 [9]: > 100 µM (inactive) | GI50 [10]: > 100 µM (inactive) | GI50 [11]: > 100 µM (inactive) | GI50 [12]: > 100 µM (inactive) | GI50 [13]: > 100 µM (inactive) | GI50 [14]: > 100 µM (inactive) | GI50 [15]: > 100 µM (inactive) | GI50 [16]: > 100 µM (inactive) | GI50 [17]: > 100 µM (inactive)

COc1ccc(-c2c(C3=NCCN3)nnn2-c2ccccc2)cc1
GI50 [1]: > 100 µM (inactive) | GI50 [2]: 98.9 µM (inactive) | GI50 [3]: > 100 µM (inactive) | GI50 [4]: 67.3 µM (inactive) | GI50 [5]: > 100 µM (inactive) | GI50 [6]: > 100 µM (inactive) | GI50 [7]: > 100 µM | GI50 [8]: > 100 µM (inactive) | GI50 [9]: > 100 µM (inactive) | GI50 [10]: 98.9 µM (inactive) | GI50 [11]: > 100 µM (inactive) | GI50 [12]: > 100 µM (inactive) | GI50 [13]: > 100 µM (inactive) | GI50 [14]: > 100 µM (inactive) | GI50 [15]: > 100 µM (inactive) | GI50 [16]: > 100 µM (inactive) | GI50 [17]: > 100 µM (inactive)

Cc1ccc(S(=O)(=O)ON=C2CC(c3ccccc3)N(C)C(c3ccccc3)C2)cc1 (stereo unspecified)
GI50 [1]: 18.5 µM (inactive) and 25.2 µM (inactive) | GI50 [2]: 23.6 µM (inactive) and 26 µM (inactive) | GI50 [3]: 25.8 µM (inactive) and 32.7 µM (inactive) | GI50 [5]: 13.5 µM (inactive) and 14 µM (inactive) | GI50 [7]: 16.7 µM and 18.5 µM | GI50 [8]: 18.3 µM (inactive) | GI50 [9]: 23.8 µM (inactive) and 22.9 µM (inactive) | GI50 [10]: 15.6 µM (inactive) and 14.8 µM (inactive) | GI50 [11]: 21.2 µM (inactive) and 22.9 µM (inactive) | GI50 [12]: 24.3 µM (inactive) | GI50 [13]: 19.2 µM (inactive) and 20.7 µM (inactive) | GI50 [14]: 16.1 µM (inactive) | GI50 [15]: 15 µM (inactive) | GI50 [16]: 19.5 µM (inactive) and 20 µM (inactive) | GI50 [17]: 19.8 µM (inactive)

CN(C)/C(=N/C(=S)Nc1ccccc1)SCc1ccccc1
GI50 [1]: 11.7 µM (inactive) | GI50 [2]: 30.3 µM (inactive) | GI50 [3]: 40.3 µM (inactive) | GI50 [4]: 18.2 µM (inactive) | GI50 [5]: 42 µM (inactive) | GI50 [6]: 12.3 µM (inactive) | GI50 [7]: 57.5 µM | GI50 [8]: 10.3 µM (inactive) | GI50 [9]: 42.2 µM (inactive) | GI50 [10]: 14.9 µM (inactive) | GI50 [11]: 56.1 µM (inactive) | GI50 [12]: 83.8 µM (inactive) | GI50 [14]: 6.17 µM (inactive) | GI50 [15]: 49.9 µM (inactive) | GI50 [16]: 56.8 µM (inactive) | GI50 [17]: 45 µM (inactive)

From ChEMBL document CHEMBL1201862, “PubChem BioAssay data set” (2004)
